Assay results: patent US9920063B2, “Melampomagnolide B derivatives” (Board of Trustees of the University of Arkansas, priority 2013, dated 2018)
Where two headings read alike, the source gives them in different places.

Legend:
AML 052308 cells [1] = test: Antileukemic activity against AML 052308 cells in culture; conditions: for Fold more potent than parthenolide: AML 052308 cells
Method: (§1) For each compound, in vitro cell culture studies were performed in which a range of concentrations (0.25-20 μM) was tested for cytotoxicity against leukemia cell lines, primary leukemia specimens and normal bone marrow controls.

[2] = tested on: AML 123009 primary isolate; test: Antileukemic activity against AML 123009 primary isolate
Method: as §1

AML 052308 cells [3] = tested on: AML 052308 cells
Method: as §1

[4] = tested on: AML 100510 primary isolate; test: Antileukemic activity against AML 100510 primary isolate
Method: as §1

M9 ENL cells [5] = tested on: M9 ENL cells
Method: (§2) Carbamate and carbonate derivatives of MMB were also screened for activity against M9 ENL cells at concentrations of 5, 10 and 20 μM (FIG. 10). […] Additionally, succinic amide derivatives of MMB were screened for activity against M9 ENL cells at concentrations of 5, 10 and 20 μM (FIG. 11).
(§3) Ester and amide derivatives of melampomagnolide B were screened for anti-leukemic activity against M9ENL AML cell lines (FIG. 12; FIG. 14; FIG. 15; FIG. 16). For each compound, in vitro cell culture studies were performed in which a range of concentrations (0.25-20 μM) was tested for cytotoxicity against leukemia cell lines, primary leukemia specimens and normal bone marrow controls.

cord blood cells = test: Toxicity against cord blood cells; format: cell-based
M9 ENL cells [6] = test: cells; conditions: 24 h
Method: as §2, §3

Compound: C=C1C(=O)O[C@H]2[C@H]1CC/C(COC(=O)/C=C/c1c[nH]c3ccccc13)=C\CC[C@@]1(C)O[C@@H]21 [BS-2-04]
- Fold more potent than parthenolide (AML 052308 cells [1]): 10 fold
- EC50 (AML 052308 cells [1]; AML 052308 cells in culture): 720 nM
- Antileukemic activity compared to MMB [2]: good anti-leukemic activity compared to parent compound MMB
- Fold more cytotoxic than MMB (AML 052308 cells [3]): about 22 fold
- Antileukemic activity compared to MMB [4]: good anti-leukemic activity compared to parent compound MMB
- Antileukemic activity compared to MMB (M9 ENL cells [5]; M9 ENL cell line): good anti-leukemic activity compared to parent compound MMB
- EC50 (cord blood cells): 750 nM

Compound: C=C1C(=O)O[C@H]2[C@H]1CC/C(COC(=O)c1ccc3cc[nH]c3c1)=C\CC[C@@]1(C)O[C@@H]21 [BS-2-05]
- EC50 (AML 052308 cells [1]): 2500 nM
- Fold more potent than parthenolide (AML 052308 cells [1]): around 3 fold
- Fold more cytotoxic than MMB (AML 052308 cells [3]): around 7 fold
- EC50 (M9 ENL cells [6]): 2500 nM

Compound: C=C1C(=O)O[C@H]2[C@H]1CC/C(COC(=O)Cc1c[nH]c3ccccc13)=C\CC[C@@]1(C)O[C@@H]21 [BS-2-32]
- Fold more potent than parthenolide (AML 052308 cells [1]): around 3 fold
- EC50 (AML 052308 cells [1]; AML 052308 cells in culture): 4000 nM
- Fold more cytotoxic than MMB (AML 052308 cells [3]): around 7 fold
- EC50 (M9 ENL cells [5]; M9ENL AML cell lines, 24 hours of drug exposure): 4000 nM
